# Source: article PMC4076210, “Discovery of Novel AKT Inhibitors with Enhanced Anti-Tumor Effects in Combination with the MEK Inhibitor” (PLoS ONE, 2014)
# Test system: solid tumor cell lines
# Assay: 3-day proliferation assay (CellTiter-Glo)
# Format: cell-based, human
# Settings: for IC50: Homo sapiens
# Method: Various tumor cell lines were obtained from different sources including; the American Type Cell Culture Collection, the Developmental Therapeutics Program, the National Cancer Institute, the German Resource Center for Biological Material and the European Collection of Animal Cell Cultures. Cell lines were typically grown in […] containing 10% FBS. Some cell lines were grown in media specified by the vendor. A 3-day proliferation assay using CellTiter-Glo (CTG, Promega) was performed to measure the growth inhibition by the compounds at 0–30 µM. Cell growth was determined relative to untreated (DMSO) controls. EC50's were calculated from inhibition curves using a 4- or 6-parameter fitting algorithm in the Assay Client application.
compound,measurement,setting,value
Cn1ncc(Cl)c1-c1cc(C(=O)N[C@H](CN)Cc2ccc(F)c(F)c2)oc1Cl [GSK2141795],solid tumor cell lines with EC50<1 µM,"178 cell lines, 3 days, CTG",36%
same,IC50,"22Rv1, 22Rv1, Prostate",0.244 µM
same,IC50,"647-V, 647V, Bladder",7.55 µM
same,IC50,"786-0, 786-O, Kidney",0.577 µM
same,IC50,"A 172, A172, Brain",5.7 µM
same,IC50,"A204, A204, Sarcoma",1.06 µM
same,IC50,"A549, A549, Lung",1.54 µM
same,IC50,"A673, A673, Sarcoma",3.41 µM
same,IC50,"A2780, A2780, Ovary",2.31 µM
same,IC50,"A-375, A375, Skin",13.8 µM
same,IC50,"A-427, A427, Lung",1.96 µM
same,IC50,"ACHN, Kidney",1.48 µM
same,IC50,"AGS, Stomach",0.491 µM
same,IC50,"BE(2)-C, BE2C, Neuroblastoma",0.664 µM
same,IC50,"BFTC-905, BFTC905, Bladder",1.38 µM
same,IC50,"BT-20, BT20, Breast",0.079 µM
same,IC50,"BXPC-3, BXPC3, Pancreas",17.2 µM
same,IC50,"C3A, Liver",0.966 µM
same,IC50,"C32TG, Skin",0.537 µM
same,IC50,"C-33-A, C-33A, Cervix",0.238 µM
same,IC50,"C-41, Cervix",15.5 µM
same,IC50,"CAL-27, CAL27, Head & Neck",6.59 µM
same,IC50,"CAL-62, CAL62, Thyroid",8.05 µM
same,IC50,"CCF-STTG1, CCFSTTG1, Brain",0.164 µM
same,IC50,"CGTH-W-1, CGTHW1, Thyroid",2.1 µM
same,IC50,"CHL-1, CHL1, Skin",3.04 µM
same,IC50,"CHP-212, CHP212, Neuroblastoma",0.595 µM
same,IC50,"COLO 205, COLO205, Colon",3.68 µM
same,IC50,"COLO 320DM, COLO320DM, Colon",0.698 µM
same,IC50,"COLO 704, COLO704, Ovary",0.104 µM
same,IC50,"COR-L23, CORL23, Lung",5.51 µM
same,IC50,"Calu-3, CALU3, Lung",0.85 µM
same,IC50,"Calu-6, CALU6, Lung",3.72 µM
same,IC50,"Caov-3, CAOV3, Ovary",4.23 µM
same,IC50,"Capan-2, Capan2, Pancreas",4.23 µM
same,IC50,"DBTRG-05MG, DBTRG05MG, Brain",3.69 µM
same,IC50,"DKMG, Brain",0.946 µM
same,IC50,"DLD-1, DLD1, Colon",5.92 µM
same,IC50,"DU-145, DU145, Prostate",3.46 µM
same,IC50,"DU-4475, DU4475, Breast",1.76 µM
same,IC50,"DoTc2-4510, DoTc24510, Cervix",1.38 µM
same,IC50,"EFM-19, EFM19, Breast",0.049 µM
same,IC50,"EKVX, Lung",3.91 µM
same,IC50,"ES2, Ovary",1.75 µM
same,IC50,"FaDu, Head & Neck",9.18 µM
same,IC50,"G-401, G401, Head & Neck",0.473 µM
same,IC50,"GCT, Sarcoma",3.2 µM
same,IC50,"H4, Brain",1.63 µM
same,IC50,"HCC70, HCC70, Breast",0.038 µM
same,IC50,"HCC1954, HCC1954, Breast",0.117 µM
same,IC50,"HCC 2998, HCC2998, Colon",1.4 µM
same,IC50,"HCT-116, HCT116, Colon",3.99 µM
same,IC50,"HMCB, Skin",2.83 µM
same,IC50,"HN5, Head & Neck",1.99 µM
same,IC50,"HOS, Sarcoma",1.18 µM
same,IC50,"HPAF-II, HPAFII, Pancreas",4.33 µM
same,IC50,"HT3, Cervix",1.45 µM
same,IC50,"HT-29, HT29, Colon",1.03 µM
same,IC50,"HT-1080, HT1080, Sarcoma",3.46 µM
same,IC50,"HUVEC, Normal Endothelial",3.18 µM
same,IC50,"HeLa, Cervix",5.72 µM
same,IC50,"Hep3B, Liver",0.154 µM
same,IC50,"Hs746T, Stomach",1.09 µM
same,IC50,"IGROV-1, IGROV1, Ovary",0.021 µM
same,IC50,"J82, Bladder",0.783 µM
same,IC50,"KATO III, KATOIII, Stomach",0.255 µM
same,IC50,"KHOS-240S, KHOS240S, Sarcoma",7.4 µM
same,IC50,"KM12, KM12, Colon",3.27 µM
same,IC50,"KPL-1, KPL1, Breast",1.39 µM
same,IC50,"KYSE-30, KYSE30, Oesophagus",3.21 µM
same,IC50,"LNCaP, Prostate",0.057 µM
same,IC50,"LS174T, Colon",1.36 µM
same,IC50,"LS-1034, LS1034, Colon",1.64 µM
same,IC50,"M14, Skin",1.88 µM
same,IC50,"MC-IXC, MCIXC, Neuroblastoma",0.282 µM
same,IC50,"MCF7, MCF7, Breast",0.139 µM
same,IC50,"MCF-10A, MCF10A, Normal Breast",0.528 µM
same,IC50,"MDA-MB-175-VII, MDAMB175-VII, Breast",0.086 µM
same,IC50,"MDA-MB-231, MDAMB231, Breast",7.62 µM
same,IC50,"MDA-MB-453, MDAMB453, Breast",0.474 µM
same,IC50,"MDA-MB-468, MDAMB468, Breast",0.369 µM
same,IC50,"MES-SA, MESSA, Sarcoma",0.342 µM
same,IC50,"MIA PaCa-2, MiaPaCa, Pancreas",0.871 µM
same,IC50,"NCI-H69, NCIH69, Lung",0.648 µM
same,IC50,"NCI-H82, NCIH82, Lung",15.1 µM
same,IC50,"NCI-H146, NCIH146, Lung",7.77 µM
same,IC50,"NCI-H157, NCIH157, Lung",1.34 µM
same,IC50,"NCI-H187, NCIH187, Lung",0.115 µM
same,IC50,"NCI-H209, NCI-H209, Lung",0.853 µM
same,IC50,"NCI-H226, NCIH226, Lung",2.75 µM
same,IC50,"NCI-H292, NCIH292, Lung",2.87 µM
same,IC50,"NCI-H322, NCIH322, Lung",4.71 µM
same,IC50,"NCI-H358, NCI-H358, Lung",0.635 µM
same,IC50,"NCI-H446, NCIH446, Lung",0.256 µM
same,IC50,"NCI-H460, NCIH460, Lung",1.94 µM
same,IC50,"NCI-H508, NCIH508, Lung",0.159 µM
same,IC50,"NCI-H520, NCIH520, Lung",0.2 µM
same,IC50,"NCI-H630, NCIH630, Lung",3.08 µM
same,IC50,"NCI-H661, NCIH661, Lung",3.3 µM
same,IC50,"NCI-H716, NCIH716, Colon",1.64 µM
same,IC50,"NCI-H747, NCIH747, Lung",0.474 µM
same,IC50,"NCI-H1563, NCIH1563, Lung",0.14 µM
same,IC50,"NCI-H1792, NCIH1792, Lung",2.84 µM
same,IC50,"NCI-H2030, NCIH2030, Lung",3.16 µM
same,IC50,"NCI-H2052, NCIH2052, Lung",1.59 µM
same,IC50,"NCI-H2081, NCIH2081, Lung",0.507 µM
same,IC50,"NCI-H2122, NCIH2122, Lung",1.91 µM
same,IC50,"NCI-H2170, NCI-H2170, Lung",3.19 µM
same,IC50,"NCI-H2228, NCIH2228, Lung",0.409 µM
same,IC50,"NCI-N87, NCIN87, Stomach",0.568 µM
same,IC50,"NCI/ADR-RES, NCIADRRES, Breast",8.01 µM
same,IC50,"OE19, OE19, Oesophagus",2.28 µM
same,IC50,"OE21, OE21, Oesophagus",0.111 µM
same,IC50,"OE33, OE33, Oesophagus",4.28 µM
same,IC50,"OV-90, OV90, Ovary",2.08 µM
same,IC50,"OVCAR-3, OVCAR3, Ovary",3.15 µM
same,IC50,"OVCAR-4, OVCAR4, Ovary",29.3 µM
same,IC50,"OVCAR-5, OVCAR5, Ovary",5.27 µM
same,IC50,"PANC-1, Panc1, Pancreas",2.22 µM
same,IC50,"PC3, Prostate",1.39 µM
same,IC50,"PL45, PL45, Pancreas",6.1 µM
same,IC50,"Panc 02.03, Panc02.03, Pancreas",10.7 µM
same,IC50,"RD, Sarcoma",6.29 µM
same,IC50,"RD-ES, RDES, Sarcoma",0.808 µM
same,IC50,"RKO, Colon",0.676 µM
same,IC50,"SAOS-2, SAOS2, Sarcoma",2.37 µM
same,IC50,"SCC12, SCC12, Head & Neck",1.29 µM
same,IC50,"SCC-9, SCC9, Head & Neck",2.39 µM
same,IC50,"SCC-13, SCC-13, Head & Neck",23.7 µM
same,IC50,"SCC-15, SCC15, Head & Neck",1.98 µM
same,IC50,"SCC-25, SCC-25, Head & Neck",2.48 µM
same,IC50,"SCLC3, Lung",0.054 µM
same,IC50,"SF-295, SF295, Brain",0.373 µM
same,IC50,"SF-539, SF539, Brain",0.388 µM
same,IC50,"SH4, Skin",5.53 µM
same,IC50,"SHP77, SHP77, Lung",3.1 µM
same,IC50,"SJRH30, SJRH30, Sarcoma",0.284 µM
same,IC50,"SK-BR-3, SKBR3, Breast",0.096 µM
same,IC50,"SK-LMS-1, SKLMS1, Sarcoma",5.87 µM
same,IC50,"SK-MEL-1, SKMEL1, Skin",2.5 µM
same,IC50,"SK-MEL-28, SKMEL28, Skin",1.61 µM
same,IC50,"SK-MES-1, SKMES-1, Lung",2.19 µM
same,IC50,"SK-N-AS, SKNAS, Neuroblastoma",3.4 µM
same,IC50,"SK-OV-3, SKOV3, Ovary",0.435 µM
same,IC50,"SK-UT-1, SKUT1, Sarcoma",0.202 µM
same,IC50,"SKNF1, Neuroblastoma",0.239 µM
same,IC50,"SN12C, Kidney",11.3 µM
same,IC50,"SNB-75, SNB75, Brain",0.449 µM
same,IC50,"SNU1, SNU1, Stomach",1.42 µM
same,IC50,"SNU-5, SNU5, Stomach",7.81 µM
same,IC50,"SNU-16, SNU16, Stomach",7.21 µM
same,IC50,"SNU-398, SNU398, Liver",13.5 µM
same,IC50,"SNU-449, SNU449, Liver",6.05 µM
same,IC50,"SW48, SW48, Colon",0.328 µM
same,IC50,"SW480, SW480, Colon",10.3 µM
same,IC50,"SW579, SW579, Thyroid",0.957 µM
same,IC50,"SW684, SW684, Sarcoma",0.336 µM
same,IC50,"SW756, SW756, Cervix",8.29 µM
same,IC50,"SW780, SW780, Bladder",4.96 µM
same,IC50,"SW872, SW872, Sarcoma",0.289 µM
same,IC50,"SW900, SW900, Lung",8.22 µM
same,IC50,"SW1088, SW1088, Brain",0.532 µM
same,IC50,"SW1417, SW1417, Colon",1.36 µM
same,IC50,"SW1783, SW1783, Brain",0.182 µM
same,IC50,"SW1990, SW1990, Pancreas",9.15 µM
same,IC50,"Skut1B, Sarcoma",0.01 µM
same,IC50,"T47D, T-47D, Breast",0.063 µM
same,IC50,"T84, Colon",2.24 µM
same,IC50,"TE 381.T, TE381T, Sarcoma",0.834 µM
same,IC50,"TK-10, TK10, Kidney",3.33 µM
same,IC50,"U20S, Sarcoma",23.2 µM
same,IC50,"U138-MG, U138MG, Brain",1.16 µM
same,IC50,"U-87 MG, U87MG, Brain",3.31 µM
same,IC50,"U-251, U251, Brain",1.23 µM
same,IC50,"UACC-62, UACC62, Skin",1.23 µM
same,IC50,"UACC-257, UACC257, Skin",2.99 µM
same,IC50,"UMUC3, UMUC3, Bladder",5.83 µM
same,IC50,"YAPC, Pancreas",10.3 µM
same,IC50,"ZR-75-1, ZR75-1, Breast",0.033 µM
